Active and inactive are the calls of the source. The calls are words filed in the database; no cut-off is given here.
Columns and labels:
[1] = target: T1, Cathepsin K (Homo sapiens, UniProt P43235); assay: Inhibition of Cathepsin K (unknown origin) assessed as inhibition of AFC release using sequence LR labelled with AFC as substrate by fluorescence based analysis
T1 sequence (P43235 whole entry): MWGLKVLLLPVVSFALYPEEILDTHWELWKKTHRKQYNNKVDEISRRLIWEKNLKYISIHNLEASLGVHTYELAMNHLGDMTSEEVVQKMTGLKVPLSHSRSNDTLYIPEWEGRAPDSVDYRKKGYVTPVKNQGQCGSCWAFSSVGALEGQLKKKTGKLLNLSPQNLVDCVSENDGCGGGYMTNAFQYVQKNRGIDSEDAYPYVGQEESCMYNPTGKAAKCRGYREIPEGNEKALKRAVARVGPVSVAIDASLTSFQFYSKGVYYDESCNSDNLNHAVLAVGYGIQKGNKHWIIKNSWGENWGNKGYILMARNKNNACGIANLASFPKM

[2] = target: T2, Cathepsin K (Homo sapiens) (UniProt P43235); assay: Inhibition of Cathepsin K (unknown origin) assessed as inhibition of AFC release at 1 uM using sequence LR labelled with AFC as substrate by fluorescence based analysis
T2 sequence (whole entry): T1 sequence (P43235 whole entry)

[3] = target: T2, Cathepsin K (Homo sapiens); assay: Inhibition of Cathepsin K (unknown origin) assessed as inhibition of AFC release at 10 uM using sequence LR labelled with AFC as substrate by fluorescence based analysis
[4] = target: Cathepsin S (Homo sapiens, UniProt P25774); assay: Inhibition of Cathepsin S (unknown origin) assessed as inhibition of AFC release using sequence VVR labelled with AFC as substrate by fluorescence based analysis
Sequence of Cathepsin S (P25774 whole entry): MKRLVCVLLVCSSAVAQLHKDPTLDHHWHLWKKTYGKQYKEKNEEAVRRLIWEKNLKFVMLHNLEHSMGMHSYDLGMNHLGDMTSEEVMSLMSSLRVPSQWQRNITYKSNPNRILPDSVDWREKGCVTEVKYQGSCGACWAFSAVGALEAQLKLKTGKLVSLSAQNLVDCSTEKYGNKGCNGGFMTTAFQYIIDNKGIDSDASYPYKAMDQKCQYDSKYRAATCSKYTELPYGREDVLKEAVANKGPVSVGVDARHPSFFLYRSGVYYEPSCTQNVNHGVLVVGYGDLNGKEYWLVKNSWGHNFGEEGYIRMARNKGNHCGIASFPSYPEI

[5] = target: Cathepsin B (Homo sapiens, UniProt P07858); assay: Inhibition of Cathepsin B (unknown origin) assessed as inhibition of AFC release using sequence RR labelled with AFC as substrate by fluorescence based analysis
[6] = target: Cathepsin (S and K) (Homo sapiens) (UniProt P25774+P43235); assay: Selectivity index, ratio of IC50 for Cathepsin S (unknown origin) to IC50 for Cathepsin K (unknown origin) by fluorescence based analysis; assay type: protein assay
Sequence of Cathepsin (S and K) (Homo sapiens) (P25774 whole entry, looked up, one chain of several): as the sequence (P25774 whole entry) above

[7] = target: Cathepsin (B and K) (Homo sapiens) (UniProt P43235+P07858); assay: Selectivity index, ratio of IC50 for Cathepsin B (unknown origin) to IC50 for Cathepsin K (unknown origin) by fluorescence based analysis; assay type: protein assay
[8] = target: T2, Cathepsin K (Homo sapiens); assay: Reversible inhibition of Cathepsin K (unknown origin) assessed as inhibition of AFC release using sequence LR labelled with AFC as substrate preincubated with enzyme for 10 to 60 mins followed by substrate addition by fluorescence based analysis

Row | SMILES | IC50 [1] [µM] | inhibition [2] [%] | inhibition [3] [%] | IC50 [4] [µM] | IC50 [5] [µM] | Ratio IC50 [6] | Ratio IC50 [7] | inhibition [8]
1 | CC(C)(C)CN(Cc1ccc2ccccc2c1)c1nccc(C#N)n1 | 0.356 | 86.5 | 89.7 | > 500 | > 500 |  |  | 
2 | CC(C)(C)CN(Cc1ccc2ccccc2n1)c1nccc(C#N)n1 |  | 46.9 | 87.4 |  |  |  |  | 
3 | CC(C)(F)C[C@H](N[C@@H](c1ccc(-c2ccc(S(C)(=O)=O)cc2)cc1)C(F)(F)F)C(=O)NC1(C#N)CC1 [ODANACATIB] | 0.0017 | 96.5 | 100 | < 0.5 | < 2 | < 300 | < 1180 | 
4 | CC(C)(C)CN(Cc1ccc2cccnc2c1)c1nccc(C#N)n1 |  | 48 | 93.4 |  |  |  |  | 
5 | N#Cc1ccnc(N(Cc2ccc(Br)cc2)CC2CCCCC2)n1 |  | 47.4 | 73.2 |  |  |  |  | 
6 | CC(C)(C)CN(Cc1ccc(-c2ccccc2)cc1)c1nccc(C#N)n1 | 0.235 | 77.5 | 83.3 | > 500 | > 500 |  |  | 
7 | CN1CCN(c2ccc(CN(CC(C)(C)C)c3nccc(C#N)n3)cc2)CC1 | 0.0619 | 96.7 | 99.1 | > 50 | > 100 | > 810 | > 1620 | Active
8 | CC(C)(C)CN(Cc1cccc(-c2ccccc2)c1)c1nccc(C#N)n1 |  | 33.6 | 45.5 |  |  |  |  | 
9 | N#Cc1ccnc(N(Cc2ccc(Br)cc2)C2CCCCC2)n1 |  | 16.8 | 42.8 |  |  |  |  | 

Next, values leading:

Row | IC50 [1] [µM] | inhibition [2] [%] | inhibition [3] [%] | IC50 [4] [µM] | IC50 [5] [µM] | Ratio IC50 [6] | Ratio IC50 [7] | inhibition [8] | SMILES
10 | 0.974 | 79.8 | 91.3 |  |  |  |  |  | CC(C)(C)CN(Cc1ccc(Br)cc1)c1nccc(C#N)n1
11 |  | 56.2 | 90.6 |  |  |  |  |  | CC(C)(C)CN(Cc1ccc(F)cc1)c1nccc(C#N)n1
12 |  |  | 32.2 |  |  |  |  |  | CC(C)(C)CN(Cc1ccc(Br)cn1)c1nccc(C#N)n1
13 |  | 61.3 | 88.3 |  |  |  |  |  | CC(C)(C)CN(Cc1ccc(Cl)cc1)c1nccc(C#N)n1
14 |  | 52.6 | 93.7 |  |  |  |  |  | Cc1ncc(CN(CC(C)(C)C)c2nccc(C#N)n2)s1
15 |  | 43.9 | 75.8 |  |  |  |  |  | CC(C)(C)CN(Cc1cc(Br)cs1)c1nccc(C#N)n1
16 |  | -1.05 | 82.7 |  |  |  |  |  | CC(C)(C)CN(Cc1ccccc1)c1nccc(C#N)n1

— ChEMBL document CHEMBL5214986, “Discovery of selective covalent cathepsin K inhibitors containing novel 4-cyanopyrimidine warhead based on quantum chemical calculations and binding mode analysis” (Bioorg Med Chem, 2022)
